# Data: ChEMBL document CHEMBL1671854, “ramR mutations involved in efflux-mediated multidrug resistance in Salmonella enterica serovar Typhimurium” (2008)
# Experiments:
# Format in all cases: functional, Salmonella enterica subsp. enterica serovar Typhimurium
# Salmonella typhimurium [1] = test: Antimicrobial activity against multidrug-resistant Salmonella enterica serovar Typhimurium 902SA92 harboring GyrA S83A and D87N, GyrB S464F and ParC S80I mutant genes by agar doubling dilution method
# Salmonella typhimurium [2] = test: Antimicrobial activity against multidrug-resistant Salmonella enterica serovar Typhimurium 902SA92 harboring plasmid encoded RamR gene, GyrA S83A and D87N, GyrB S464F and ParC S80I mutant genes by agar doubling dilution method
# Salmonella typhimurium [3] = test: Antimicrobial activity against ramA::kan-deficient Salmonella enterica serovar Typhimurium 902SA92 harboring GyrA S83A and D87N, GyrB S464F and ParC S80I mutant genes by agar doubling dilution method
# Salmonella typhimurium [4] = test: Antimicrobial activity against multidrug-resistant Salmonella enterica serovar Typhimurium 102SA00 harboring GyrA S83A and D87N, GyrB S464F and ParC S80I mutant genes by agar doubling dilution method
# Salmonella typhimurium [5] = test: Antimicrobial activity against multidrug-resistant Salmonella enterica serovar Typhimurium 102SA00 harboring plasmid encoded RamR gene, GyrA S83A and D87N, GyrB S464F and ParC S80I mutant genes by agar doubling dilution method
# Salmonella typhimurium [6] = test: Antimicrobial activity against ramA::kan-deficient Salmonella enterica serovar Typhimurium 102SA00 harboring GyrA S83A and D87N, GyrB S464F and ParC S80I mutant genes by agar doubling dilution method
# Salmonella typhimurium [7] = test: Antimicrobial activity against multidrug-resistant Salmonella enterica serovar Typhimurium BN10055 harboring GyrA S83Y mutant gene by agar doubling dilution method
# Salmonella typhimurium [8] = test: Antimicrobial activity against multidrug-resistant Salmonella enterica serovar Typhimurium BN10055 harboring plasmid encoded RamR gene, GyrA S83Y mutant gene by agar doubling dilution method
# Salmonella typhimurium [9] = test: Antimicrobial activity against ramA::kan-deficient Salmonella enterica serovar Typhimurium BN10055 harboring GyrA S83Y mutant gene by agar doubling dilution method
# Salmonella typhimurium [10] = test: Antimicrobial activity against multidrug-resistant Salmonella enterica serovar Typhimurium 543SA98 harboring GyrA […] mutant gene by agar doubling dilution method
# Salmonella typhimurium [11] = test: Antimicrobial activity against multidrug-resistant Salmonella enterica serovar Typhimurium 543SA98 harboring plasmid encoded RamR gene, GyrA S83Y mutant gene by agar doubling dilution method
# Salmonella typhimurium [12] = test: Antimicrobial activity against ramA::kan-deficient Salmonella enterica serovar Typhimurium 543SA98 harboring GyrA S83Y mutant gene by agar doubling dilution method
# Salmonella typhimurium [13] = test: Antimicrobial activity against multidrug-resistant Salmonella enterica serovar Typhimurium BN9945 by agar doubling dilution method
# Salmonella typhimurium [14] = test: Antimicrobial activity against multidrug-resistant Salmonella enterica serovar Typhimurium BN9945 harboring plasmid encoded RamR gene by agar doubling dilution method
# Salmonella typhimurium [15] = test: Antimicrobial activity against ramA::kan-deficient Salmonella enterica serovar Typhimurium BN9945 by agar doubling dilution method
# Salmonella typhimurium [16] = test: Antimicrobial activity against multidrug-resistant Salmonella enterica serovar Typhimurium BN9181 by agar doubling dilution method
# Salmonella typhimurium [17] = test: Antimicrobial activity against multidrug-resistant Salmonella enterica serovar Typhimurium BN9181 harboring plasmid encoded RamR gene by agar doubling dilution method
# Salmonella typhimurium [18] = test: Antimicrobial activity against ramA::kan-deficient Salmonella enterica serovar Typhimurium BN9181 by agar doubling dilution method
# Salmonella typhimurium [19] = test: Antimicrobial activity against Salmonella enterica serovar Typhimurium S/921495 by agar doubling dilution method
# Salmonella typhimurium [20] = test: Antimicrobial activity against marR::kan-deficient Salmonella enterica serovar Typhimurium S/921495 by agar doubling dilution method
# Salmonella typhimurium [21] = test: Antimicrobial activity against marR-deficient Salmonella enterica serovar Typhimurium S/921495 by agar doubling dilution method
# Salmonella typhimurium [22] = test: Antimicrobial activity against marA::kan-deficient Salmonella enterica serovar Typhimurium S/921495 by agar doubling dilution method
# Salmonella typhimurium [23] = test: Antimicrobial activity against soxR::kan-deficient Salmonella enterica serovar Typhimurium S/921495 by agar doubling dilution method
# Salmonella typhimurium [24] = test: Antimicrobial activity against soxS::kan-deficient Salmonella enterica serovar Typhimurium S/921495 by agar doubling dilution method
# Salmonella typhimurium [25] = test: Antimicrobial activity against Salmonella enterica serovar Typhimurium S/921495 harboring plasmid encoded RamR gene by agar doubling dilution method
# Salmonella typhimurium [26] = test: Antimicrobial activity against ramR-deficient Salmonella enterica serovar Typhimurium S/921495 harboring plasmid encoded RamR gene by agar doubling dilution method
# Salmonella typhimurium [27] = test: Antimicrobial activity against ramA::kan-deficient Salmonella enterica serovar Typhimurium S/921495 by agar doubling dilution method
# Salmonella typhimurium [28] = test: Antimicrobial activity against Salmonella enterica serovar Typhimurium BN18 by agar doubling dilution method
# Salmonella typhimurium [29] = test: Antimicrobial activity against Salmonella enterica serovar Typhimurium BN18 harboring plasmid encoded RamR gene by agar doubling dilution method
# Salmonella typhimurium [30] = test: Antimicrobial activity against ramA::kan-deficient Salmonella enterica serovar Typhimurium BN18 by agar doubling dilution method
# Salmonella typhimurium [31] = test: Antimicrobial activity against Salmonella enterica serovar Typhimurium BN18/21 by agar doubling dilution method
# Salmonella typhimurium [32] = test: Antimicrobial activity against Salmonella enterica serovar Typhimurium BN18/21 harboring plasmid encoded RamR gene by agar doubling dilution method
# Salmonella typhimurium [33] = test: Antimicrobial activity against ramA::kan-deficient Salmonella enterica serovar Typhimurium BN18/21 by agar doubling dilution method
# Salmonella typhimurium [34] = test: Antimicrobial activity against Salmonella enterica serovar Typhimurium BN18/41 harboring GyrA G81C,acrR mutant genes by agar doubling dilution method
# Salmonella typhimurium [35] = test: Antimicrobial activity against Salmonella enterica serovar Typhimurium BN18/41 harboring plasmid encoded RamR gene, GyrA G81C,acrR mutant genes by agar doubling dilution method
# Salmonella typhimurium [36] = test: Antimicrobial activity against ramA::kan-deficient Salmonella enterica serovar Typhimurium BN18/41 harboring plasmid encoded RamR gene, GyrA G81C,acrR mutant genes by agar doubling dilution method
# Salmonella typhimurium [37] = test: Antimicrobial activity against Salmonella enterica serovar Typhimurium BN18/71 harboring GyrA G81C, acrR mutant genes by agar doubling dilution method
# Salmonella typhimurium [38] = test: Antimicrobial activity against Salmonella enterica serovar Typhimurium BN18/71 harboring plasmid encoded RamR gene, GyrA G81C,acrR mutant genes by agar doubling dilution method
# Salmonella typhimurium [39] = test: Antimicrobial activity against ramA::kan-deficient Salmonella enterica serovar Typhimurium BN18/71 harboring plasmid encoded RamR gene, GyrA G81C,acrR mutant genes by agar doubling dilution method
# Salmonella typhimurium [40] = test: Antimicrobial activity against ramR::kan-deficient Salmonella enterica serovar Typhimurium S/921495 by agar doubling dilution method
# Salmonella typhimurium [41] = test: Antimicrobial activity against ramR-deficient Salmonella enterica serovar Typhimurium S/921495 by agar doubling dilution method
structure (smiles),measurement,setting,value
O=C(O)c1cn(C2CC2)c2cc(N3CCNCC3)c(F)cc2c1=O [CIPROFLOXACIN],MIC,Salmonella typhimurium [1],32 µg/mL
same,MIC,Salmonella typhimurium [2],8 µg/mL
same,MIC,Salmonella typhimurium [3],8 µg/mL
same,MIC,Salmonella typhimurium [4],32 µg/mL
same,MIC,Salmonella typhimurium [5],8 µg/mL
same,MIC,Salmonella typhimurium [6],8 µg/mL
same,MIC,Salmonella typhimurium [7],1 µg/mL
same,MIC,Salmonella typhimurium [8],1 µg/mL
same,MIC,Salmonella typhimurium [9],0.25 µg/mL
same,MIC,Salmonella typhimurium [10],0.5 µg/mL
same,MIC,Salmonella typhimurium [11],0.125 µg/mL
same,MIC,Salmonella typhimurium [12],0.125 µg/mL
same,MIC,Salmonella typhimurium [13],0.5 µg/mL
same,MIC,Salmonella typhimurium [14],0.125 µg/mL
same,MIC,Salmonella typhimurium [15],0.125 µg/mL
same,MIC,Salmonella typhimurium [16],0.015 µg/mL
same,MIC,Salmonella typhimurium [17],0.015 µg/mL
same,MIC,Salmonella typhimurium [18],0.0075 µg/mL
same,MIC,Salmonella typhimurium [19],0.015 µg/mL
same,MIC,Salmonella typhimurium [20],0.015 µg/mL
same,MIC,Salmonella typhimurium [21],0.015 µg/mL
same,MIC,Salmonella typhimurium [22],0.015 µg/mL
same,MIC,Salmonella typhimurium [23],0.015 µg/mL
same,MIC,Salmonella typhimurium [24],0.015 µg/mL
same,MIC,Salmonella typhimurium [25],0.015 µg/mL
same,MIC,Salmonella typhimurium [26],0.015 µg/mL
same,MIC,Salmonella typhimurium [27],0.015 µg/mL
same,MIC,Salmonella typhimurium [28],0.015 µg/mL
same,MIC,Salmonella typhimurium [29],0.015 µg/mL
same,MIC,Salmonella typhimurium [30],0.015 µg/mL
same,MIC,Salmonella typhimurium [31],0.125 µg/mL
same,MIC,Salmonella typhimurium [32],0.06 µg/mL
same,MIC,Salmonella typhimurium [33],0.06 µg/mL
same,MIC,Salmonella typhimurium [34],2 µg/mL
same,MIC,Salmonella typhimurium [35],0.5 µg/mL
same,MIC,Salmonella typhimurium [36],0.5 µg/mL
same,MIC,Salmonella typhimurium [37],8 µg/mL
same,MIC,Salmonella typhimurium [38],2 µg/mL
same,MIC,Salmonella typhimurium [39],2 µg/mL
same,MIC,Salmonella typhimurium [40],0.06 µg/mL
same,MIC,Salmonella typhimurium [41],0.06 µg/mL
CS(=O)(=O)c1ccc([C@@H](O)[C@@H](CF)NC(=O)C(Cl)Cl)cc1 [FLORFENICOL],MIC,Salmonella typhimurium [1],16 µg/mL
same,MIC,Salmonella typhimurium [2],4 µg/mL
same,MIC,Salmonella typhimurium [3],4 µg/mL
same,MIC,Salmonella typhimurium [4],16 µg/mL
same,MIC,Salmonella typhimurium [5],4 µg/mL
same,MIC,Salmonella typhimurium [6],4 µg/mL
same,MIC,Salmonella typhimurium [7],128 µg/mL
same,MIC,Salmonella typhimurium [8],128 µg/mL
same,MIC,Salmonella typhimurium [9],32 µg/mL
same,MIC,Salmonella typhimurium [10],512 µg/mL
same,MIC,Salmonella typhimurium [11],128 µg/mL
same,MIC,Salmonella typhimurium [12],128 µg/mL
same,MIC,Salmonella typhimurium [13],128 µg/mL
same,MIC,Salmonella typhimurium [14],64 µg/mL
same,MIC,Salmonella typhimurium [15],64 µg/mL
same,MIC,Salmonella typhimurium [16],32 µg/mL
same,MIC,Salmonella typhimurium [17],32 µg/mL
same,MIC,Salmonella typhimurium [18],32 µg/mL
same,MIC,Salmonella typhimurium [19],4 µg/mL
same,MIC,Salmonella typhimurium [20],4 µg/mL
same,MIC,Salmonella typhimurium [21],4 µg/mL
same,MIC,Salmonella typhimurium [22],4 µg/mL
same,MIC,Salmonella typhimurium [23],4 µg/mL
same,MIC,Salmonella typhimurium [24],4 µg/mL
same,MIC,Salmonella typhimurium [25],4 µg/mL
same,MIC,Salmonella typhimurium [26],4 µg/mL
same,MIC,Salmonella typhimurium [27],4 µg/mL
same,MIC,Salmonella typhimurium [28],4 µg/mL
same,MIC,Salmonella typhimurium [29],4 µg/mL
same,MIC,Salmonella typhimurium [30],2 µg/mL
same,MIC,Salmonella typhimurium [31],16 µg/mL
same,MIC,Salmonella typhimurium [32],4 µg/mL
same,MIC,Salmonella typhimurium [33],4 µg/mL
same,MIC,Salmonella typhimurium [34],64 µg/mL
same,MIC,Salmonella typhimurium [35],8 µg/mL
same,MIC,Salmonella typhimurium [36],8 µg/mL
same,MIC,Salmonella typhimurium [37],64 µg/mL
same,MIC,Salmonella typhimurium [38],8 µg/mL
same,MIC,Salmonella typhimurium [39],8 µg/mL
same,MIC,Salmonella typhimurium [40],16 µg/mL
same,MIC,Salmonella typhimurium [41],16 µg/mL
